What was measured:
[1] = system: Cox-1, Cox-2, Cox-4, grp78, XIAP; assay: Immunoblotting of mitochondrially and cytosolically translated proteins; type: cell-based, human; settings: TEX, OCI-AML2 and two AML patients' cells, 2.5 μM and 5 μM
Protocol: (§1) FIG. 4. […] (A) Cells from TEX, OCI-AML2 and two primary AML patients were treated with increasing concentrations (2.5 μM and 5 μM) of tigecycline for 36 and 48 hours of tigecycline. Total proteins were extracted and analyzed by western blotting for Cox-1, Cox-2, Cox-4, grp78, XIAP, actin and tubulin. (B) TEX and AML patient cells were treated with increasing concentrations (2.5 μM and 5 μM) of tigecycline. Cox-1, Cox-2, and Cox-4 mRNA expression relative 18S was determined by quantitative RT-PCR. Data is shown as mean±SD. (C) TEX cells were treated with increasing concentrations of tigecycline and chloramphenicol (CAP) for 72 hours. Complex I, II and IV enzyme activity relative to citrate synthase activity was determined as described in materials and methods. (D) Cells from TEX, primary AML patients, and normal donors were treated with increasing concentrations of tigecycline. Mitochondrial membrane potential (Δψ) was determined by staining cells with JC-1 dye, and flow cytometry analysis (Red/Green ratio). Reactive oxygen species generation (ROS) was determined by staining with h2-DCFDA and Dihydroethidium (DHE).
Total cell lysates were prepared from cells as described previously^32. […] Protein concentrations were measured by the DC Protein assay. […]

[2] = system: Cox-1, Cox-2, and Cox-4 mRNA; assay: Quantitative RT-PCR of Cox mRNA; type: cell-based, human; settings: TEX and primary AML cells, 2.5 μM and 5 μM
Protocol: as §1

[3] = PK study in mice, single dose i.p.; type: in vivo; settings: mouse, serum, ip, single dose 50 mg/kg i.p.
Complex I, II and IV = assay: Respiratory chain complex enzyme activity relative to citrate synthase; type: cell-based, human; settings: TEX cells, 2.5 μM and 5 μM, 72 hours
Protocol: (§2) FIG. 4. Tigecycline decreases mitochondrial Cox-1 protein levels in TEX cells. (A) Cells from TEX, OCI-AML2 and two primary AML patients were treated with increasing concentrations (2.5 μM and 5 μM) of tigecycline for 36 and 48 hours of tigecycline. Total proteins were extracted and analyzed by western blotting for Cox-1, Cox-2, Cox-4, grp78, XIAP, actin and tubulin. (B) TEX and AML patient cells were treated with increasing concentrations (2.5 μM and 5 μM) of tigecycline. Cox-1, Cox-2, and Cox-4 mRNA expression relative 18S was determined by quantitative RT-PCR. Data is shown as mean±SD. (C) TEX cells were treated with increasing concentrations of tigecycline and chloramphenicol (CAP) for 72 hours. Complex I, II and IV enzyme activity relative to citrate synthase activity was determined as described in materials and methods. (D) Cells from TEX, primary AML patients, and normal donors were treated with increasing concentrations of tigecycline. Mitochondrial membrane potential (Δψ) was determined by staining cells with JC-1 dye, and flow cytometry analysis (Red/Green ratio). Reactive oxygen species generation (ROS) was determined by staining with h2-DCFDA and Dihydroethidium (DHE).
The effect of tigecycline treatment on enzyme activity of the respiratory chain complexes relative to the mitochondrial non-respiratory chain enzyme citrate synthase was examined. TEX leukemia cells were treated with tigecycline for […] and then respiratory chain enzyme relative to citrate synthase activity was analyzed. Equivalent tigecycline concentrations (2.5 μM and 5 μM) decreased enzyme activities of Complexes I and IV relative to citrate synthase, while complex II activity was less affected (FIG. 4C).

primary AML samples = assay: Mitochondrial membrane potential, JC-1 dye; type: cell-based, human; settings: three primary AML samples, 5 μM, times preceding onset of cell death
Protocol: as §2
(§3) To measure mitochondrial membrane potential, cells were treated with tigecycline similarly as described above and then washed twice with PBS and incubated with 5 μM of 5,5′,6,6′-tetrachloro-1,1′,3,3′-tetraethyl benzimidazolylcarbocyanine iodide (JC-1, Sigma-Aldrich) for 20 minutes at 37° C. Each sample was then washed twice with 1 mL PBS and resuspended in 500 μL PBS prior to being read on a BD FACSCalibur. Samples were excited at 488 nm and emission was collected at 526 nm (green) and 595 nm (red). Analysis was conducted using FlowJo software (TreeStar Inc). […]
(§4) During oxidative phosphorylation, the intermediate between oxygen reduction and ATP synthesis is the electrochemical proton gradient, comprised mostly of the mitochondrial membrane potential. […] The effect of tigecycline treatment on the mitochondrial membrane potential as determined by the carbocyanine dye JC-1 was examined. […]

[4] = system: normal hematopoietic cells; assay: Mitochondrial membrane potential, JC-1 dye; type: cell-based, human; settings: normal hematopoietic cells from two G-CSF mobilized normal donors
Protocol: as §2, §3, §4

TEX cells = assay: Mitochondrial membrane potential, JC-1 dye; type: cell-based, human; settings: 5 μM, times preceding onset of cell death
Protocol: as §2, §3, §4

[5] = system: bacterial protein synthesis; settings: cited from earlier work
[6] = rat, in vivo, 30 mg/kg/day; cited from earlier work

For CN(C)c1cc(NC(=O)CNC(C)(C)C)c(O)c2c1C[C@H]1C[C@H]3[C@H](N(C)C)C(O)=C(C(N)=O)C(=O)[C@@]3(O)C(O)=C1C2=O [tigecycline], which “expression of nuclear-encoded proteins XIAP or grp78” value [1] is on record?
The value was “did not alter”.

What about the “expression of Cox subunit proteins” value ([1]; 36 and 48 hours) of the same compound?
Its value is “preferential decrease of mitochondrially-translated subunits I and II, over nuclear-translated subunit IV”.

And the “Cox-1, Cox-2, Cox-4 mRNA expression relative 18S” value [2]?
Its value is “preferential increased mRNA expression of mitochondrial-encoded genes Cox-1, Cox-2, over the nuclear-encoded gene Cox-4”.

And the Tmax [3]?
Its Tmax is ~0.5 h.

What about the half-life [3] of the same compound?
Its half-life is ~4.5 h.

What about the “Complex I enzyme activity relative to citrate synthase” value (Complex I, II and IV) of the same compound?
The value was “decreased”.

And the “Complex II enzyme activity relative to citrate synthase” value (Complex I, II and IV)?
The value was “less affected”.

What about the “Complex IV enzyme activity relative to citrate synthase” value (Complex I, II and IV) of the same compound?
Its value is “decreased”.

What about the “mitochondrial membrane potential (JC-1 Red/Green ratio)” value (primary AML samples) of the same compound?
The value was “decreased mitochondrial membrane potential”.

And the “loss of mitochondrial membrane potential” value [4]?
The value was “not seen”.

And the “mitochondrial membrane potential (JC-1 Red/Green ratio)” value (TEX cells)?
The value was “decreased mitochondrial membrane potential”.

And the “inhibition of bacterial protein synthesis, fold greater than minocycline” value ([5]; relative to minocycline)?
The value was 3 fold.

What about the “inhibition of bacterial protein synthesis, fold greater than tetracycline” value ([5]; relative to tetracycline) of the same compound?
The value was 20 fold.

And the toxicology findings [6]?
Its toxicology findings is “reversible anemia, thrombocytopenia, and leucopenia with a hypocellular bone marrow”.
